In assay [1] the target is T1, p53 Y220C mutant (Homo sapiens, UniProt P04637, Y220C).
T1 construct: gene TP53; Biotinylated DBD of p53-Y220C
Kind of assay: SPR (Biacore 8K); also thermal shift and TR-FRET DNA binding.

Assay [2] relates to A-431. The experiment in a line: cells. Set-up: 5-day MTT proliferation assay, absorbance 570 nm, per cent viability of untreated cells, IC50 from XLfit. To be noted: Homo sapiens, A-431, 120 h; 5-day MTT proliferation; read-out: PC14586 MTT IC50. Here is the method:
(§1) The antiproliferative activity of compounds was evaluated using the MTT (Sigma-Aldrich, Cat. # M5655-1G) assay in a 96-well plate format. Cells were seeded at an appropriate density depending on the growth rate in 96-well microtiter plates, and compounds were tested at eight concentrations with 2-fold serial dilutions. Antiproliferative activity was assessed 5 days later by the conversion of the tetrazolium dye MTT (1 mg/mL) into insoluble formazan by viable cells, which was dissolved in ethanol and measured by a microplate reader for absorbance with a wavelength of 570 nm and a reference wavelength of 650 nm. The results were presented as a percentage of the viability of untreated cells (control). The IC50 was determined from the regression of a plot of the logarithm of concentration versus percentage of viability by XLfit IDBS. The data presented thus far indicate that PC14586 is a potent and selective reactivator of p53-Y220C with strong antiproliferative effects driven by cell-cycle arrest. To further investigate the selectivity and effects on proliferation following treatment with PC14586, additional p53-Y220C, p53 hotspot mutant, and p53-WT cell lines were assessed in a 5-day 3-[4,5-dimethylthiazol-2-yl]-2,5-diphenyl tetrazolium bromide (MTT) assay. […] The less sensitive p53-Y220C cell lines, TE-8 and HCC1419, have an additional p53 mutation. In the case of TE-8, the secondary mutation, M237I, is in the DBD of p53 and has been reported to interfere with p53 DNA binding ([36]). The spectrum of sensitivity to our compounds in cell lines with additional p53 mutations may indicate that monitoring second-site mutations and patient responses could yield mechanistic insights and potential biomarkers.

Assay [3] relates to BxPC-3. Kind of assay: cells. Set-up: 5-day MTT proliferation assay, absorbance 570 nm, per cent viability of untreated cells, IC50 from XLfit. To be noted: Homo sapiens, BXPC-3, 120 h; 5-day MTT proliferation; read-out: PC14586 MTT IC50. Here is the method:
as §1

The test system of assay [4] is C-33A. Kind of assay: cells. To be noted: Homo sapiens, C-33-A, 120 h; 5-day MTT proliferation; read-out: PC14586 MTT IC50. Also on record: 5-day MTT proliferation assay, absorbance 570 nm, per cent viability of untreated cells, IC50 from XLfit. Here is the method: as §1
The test system of assay [5] is EFE-184. Kind of assay: cells. To be noted: Homo sapiens, EFE-184, 120 h; 5-day MTT proliferation; read-out: PC14586 MTT IC50. Set-up: 5-day MTT proliferation assay, absorbance 570 nm, per cent viability of untreated cells, IC50 from XLfit. The method, then:
as §1

In assay [6] the test system is HCC1419#. The experiment in a line: cells. Also on record: 5-day MTT proliferation assay, absorbance 570 nm, per cent viability of untreated cells, IC50 from XLfit. To be noted: Homo sapiens, HCC1419, 120 h; 5-day MTT proliferation; read-out: PC14586 MTT IC50. The method, then: as §1
Assay [7] concerns HCC2935. The experiment in a line: cells. Also on record: 5-day MTT proliferation assay, absorbance 570 nm, per cent viability of untreated cells, IC50 from XLfit. To be noted: Homo sapiens, HCC2935, 120 h; 5-day MTT proliferation; read-out: PC14586 MTT IC50. The method, then:
as §1

Assay [8] relates to HCT 116. Kind of assay: cells. Set-up: 5-day MTT proliferation assay, absorbance 570 nm, per cent viability of untreated cells, IC50 from XLfit. To be noted: Homo sapiens, HCT-116, 120 h; 5-day MTT proliferation; read-out: PC14586 MTT IC50. Here is the method:
as §1

The subject of assay [9] is HuH-7. Kind of assay: cells. To be noted: Homo sapiens, Huh-7, 120 h; 5-day MTT proliferation; read-out: PC14586 MTT IC50. Set-up: 5-day MTT proliferation assay, absorbance 570 nm, per cent viability of untreated cells, IC50 from XLfit. The method, then: as §1
In assay [10] the test system is KON. The experiment in a line: cells. Set-up: 5-day MTT proliferation assay, absorbance 570 nm, per cent viability of untreated cells, IC50 from XLfit. To be noted: 120 h; 5-day MTT proliferation; read-out: PC14586 MTT IC50. The method, then: as §1
The subject of assay [11] is MFE-296#. The experiment in a line: cells. Also on record: 5-day MTT proliferation assay, absorbance 570 nm, per cent viability of untreated cells, IC50 from XLfit. To be noted: Homo sapiens, MFE-296, 120 h; 5-day MTT proliferation; read-out: PC14586 MTT IC50. Here is the method:
as §1

Assay [12] deals with NUGC-3_KO. Kind of assay: cells. Set-up: 5-day MTT proliferation assay, absorbance 570 nm, per cent viability of untreated cells, IC50 from XLfit. To be noted: 120 h; 5-day MTT proliferation; read-out: PC14586 MTT IC50. The method, then: as §1
For assay [13], the system named is NUGC-3. The experiment in a line: cells. Set-up: 5-day MTT proliferation assay, absorbance 570 nm, per cent viability of untreated cells, IC50 from XLfit. To be noted: Homo sapiens, NUGC-3, 120 h; 5-day MTT proliferation; read-out: PC14586 MTT IC50. Here is the method:
as §1

For assay [14], the system named is SF-295. Kind of assay: cells. To be noted: Homo sapiens, SF-295, 120 h; 5-day MTT proliferation; read-out: PC14586 MTT IC50. Set-up: 5-day MTT proliferation assay, absorbance 570 nm, per cent viability of untreated cells, IC50 from XLfit. The method, then:
as §1

Assay [15] has as its system SJSA-1. The experiment in a line: cells. Set-up: 5-day MTT proliferation assay, absorbance 570 nm, per cent viability of untreated cells, IC50 from XLfit. To be noted: Homo sapiens, SJSA-1, 120 h; 5-day MTT proliferation; read-out: PC14586 MTT IC50. The method, then: as §1
Assay [16] relates to SNU-NCC-19. The experiment in a line: cells. Set-up: 5-day MTT proliferation assay, absorbance 570 nm, per cent viability of untreated cells, IC50 from XLfit. To be noted: 120 h; 5-day MTT proliferation; read-out: PC14586 MTT IC50. The method, then: as §1
Assay [17] has as its system SU.86.86. The experiment in a line: cells. Also on record: 5-day MTT proliferation assay, absorbance 570 nm, per cent viability of untreated cells, IC50 from XLfit. To be noted: Homo sapiens, SU.86.86, 120 h; 5-day MTT proliferation; read-out: PC14586 MTT IC50. Here is the method:
as §1

In assay [18] the test system is T3M-4. Kind of assay: cells. Also on record: 5-day MTT proliferation assay, absorbance 570 nm, per cent viability of untreated cells, IC50 from XLfit. To be noted: T3M4, 120 h; 5-day MTT proliferation; read-out: PC14586 MTT IC50. The method, then:
as §1

In assay [19] the test system is TE-8#. Kind of assay: cells. Set-up: 5-day MTT proliferation assay, absorbance 570 nm, per cent viability of untreated cells, IC50 from XLfit. To be noted: Homo sapiens, TE-8, 120 h; 5-day MTT proliferation; read-out: PC14586 MTT IC50. Here is the method:
as §1

The test system of assay [20] is TOV-112D. The experiment in a line: cells. To be noted: Homo sapiens, TOV112D, 120 h; 5-day MTT proliferation; read-out: PC14586 MTT IC50. Set-up: 5-day MTT proliferation assay, absorbance 570 nm, per cent viability of untreated cells, IC50 from XLfit. Here is the method: as §1

Bounds are passed on as bounds.

T1 sequence (P04637 94-312 limits assumed, stated change not applied): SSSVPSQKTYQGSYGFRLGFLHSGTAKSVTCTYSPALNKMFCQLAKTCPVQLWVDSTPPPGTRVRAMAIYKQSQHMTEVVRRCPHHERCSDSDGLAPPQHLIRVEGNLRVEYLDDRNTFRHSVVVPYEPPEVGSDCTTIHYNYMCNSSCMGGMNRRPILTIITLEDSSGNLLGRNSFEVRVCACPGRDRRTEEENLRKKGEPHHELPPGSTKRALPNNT

By IC50 is commonly meant the concentration at which inhibition is half-maximal. For the molecule `CNC(=O)c1ccc(NCC#Cc2cc3c(N[C@@H]4CCN(C)C[C@@H]4F)cccc3n2CC(F)(F)F)c(OC)c1` [PC14586, rezatapopt], the Kd entry in assay [1] is “PC14374 and PC14586 both have low nmol/L SC150 and SPR Kd”. The IC50 in [2] is 13.8 µM; in assay [3] it was 0.33 µM; in assay [4] it was 18.5 µM; in assay [5] it was 12.5 µM; in assay [6], 4.87 µM; in assay [7] it was 0.4 µM. Moreover, the concentration for half-maximal inhibition (IC50) in assay [8] stood at 19.3 µM; in [9] it was 0.49 µM; in assay [10], 1.05 µM; in assay [11], 0.5 µM; in [12], 15.5 µM; in [13], 0.59 µM. For the same molecule, the IC50 is 11.2 µM in [14]; over 20 µM in assay [15]; 0.23 µM in [16]; 16.8 µM in assay [17]; 1.81 µM in assay [18]; 8.66 µM in assay [19]. Moreover, the IC50 in assay [20] was determined as 13 µM.

The values are drawn from paper PMC12130801, “Restoration of the Tumor Suppressor Function of Y220C-Mutant p53 by Rezatapopt, a Small-Molecule Reactivator” (Cancer Discovery, 2025).
